According to patent publication US20120288509A1, “ANALYSIS OF METHYLATED NUCLEIC ACID” (priority 2004, published 2012):

Test system: SW48 cells
Assay: 5-Aza-dC treatment and RT-PCR: reactivation of silenced genes in SW48 cells
Type: cell-based
Conditions: SW48 colon cancer cells, 5 μM 5-Aza-dC for 4 days, subset of candidate genes, versus untreated cells
Excerpt: FIG. 3: Validation of novel targets for aberrant methylation in colon cancer. A. Primers for PCR were designed for positive clones identified in the microarray analysis as hypermethylated in SW48 cells. DNA methylation was controlled by Single-gene PCR on enriched methylated samples prepared from WI38 primary fibroblasts and SW48 colon cancer cells according to the method described above. IN=input genomic DNA, M=enriched methylated DNA. As a separate control the inventors analyzed samples prepared from matched normal colon (N) and colon tumor (T) from three patients. MLH1 and RASSF1A have previously been described to be aberrantly methylated in SW48 cells and in some colon tumors. The imprinted H19 ICR sequence serves as a positive control for methylation. B. Control of methylation status by methylation-sensitive restriction. Genomic DNA was either digested with the methylation-sensitive HpaII enzyme or undigested and used as a PCR template with primers spanning a HpaII-containing PCR fragments in three randomly selected positive clones (top) and negative clones (bottom). The number of HpaII sites within the PCR amplicon is indicated in parenthesis. Presence of a PCR product after HpaII digest reflects DNA methylation in the sample and in each case confirms the above described enrichment analysis. C. Reactivation of silenced genes in SW48 cells by 5-Aza-dC treatment. […]

How did the “transcription of silenced (methylated) genes by RT-PCR after treatment with the demethylating agent” value turn out when `Nc1ncn([C@H]2C[C@H](O)[C@@H](CO)O2)c(=O)n1` [5-Aza-dC] was run?
The value was “derepression”.
